From ChEMBL document CHEMBL3352159, “Protolichesterinic acid derivatives: α-methylene-γ-lactones as potent dual activators of PPARγ and Nrf2 transcriptional factors” (Bioorg Med Chem Lett, 2014)
The source made the active and inactive calls. The rule behind the calls is not given here.

Legend:
[1] = Cytotoxicity against human A375M cells after 4 days by MTT assay; type: functional, cell-based; details: 96 h
[2] = biological target: Nuclear factor erythroid 2-related factor 2 (Mus musculus) (UniProt Q60795); test: Activation of Nrf2 in mouse peritoneal macrophages assessed as increase in NQO-1 mRNA expression treated for 5 hrs by qRT-PCR analysis
[3] = tested on: Peritoneal macrophage cell; test: Induction of CD36 mRNA expression in mouse peritoneal macrophages isolated from PPARgamma -/- mouse treated at 1 uM for 5 hrs by qRT-PCR analysis; type: functional, cell-based
[4] = tested on: Peritoneal macrophage cell; test: Induction of NQO-1 mRNA expression in mouse peritoneal macrophages isolated from PPARgamma -/- mouse treated at 1 uM for 5 hrs by qRT-PCR analysis; type: functional, cell-based
[5] = tested on: Peritoneal macrophage cell; test: Induction of HO-1 mRNA expression in mouse peritoneal macrophages isolated from PPARgamma -/- mouse treated at 1 uM for 5 hrs by qRT-PCR analysis; type: functional, cell-based
[6] = biological target: Nuclear factor erythroid 2-related factor 2 (Mus musculus) (UniProt Q60795); test: Activation of Nrf2 in mouse peritoneal macrophages assessed as increase in HO-1 mRNA expression treated for 5 hrs by qRT-PCR analysis
[7] = tested on: Peritoneal macrophage cell; test: Induction of Dectin-1 mRNA expression in mouse peritoneal macrophages isolated from PPARgamma -/- mouse treated at 1 uM for 5 hrs by qRT-PCR analysis; type: functional, cell-based
[8] = biological target: T1, Peroxisome proliferator-activated receptor gamma (Mus musculus) (UniProt P37238); test: Activation of PPARgamma in mouse peritoneal macrophages assessed as increase in Dectin-1 mRNA expression treated for 5 hrs by qRT-PCR analysis
T1 sequence (whole entry): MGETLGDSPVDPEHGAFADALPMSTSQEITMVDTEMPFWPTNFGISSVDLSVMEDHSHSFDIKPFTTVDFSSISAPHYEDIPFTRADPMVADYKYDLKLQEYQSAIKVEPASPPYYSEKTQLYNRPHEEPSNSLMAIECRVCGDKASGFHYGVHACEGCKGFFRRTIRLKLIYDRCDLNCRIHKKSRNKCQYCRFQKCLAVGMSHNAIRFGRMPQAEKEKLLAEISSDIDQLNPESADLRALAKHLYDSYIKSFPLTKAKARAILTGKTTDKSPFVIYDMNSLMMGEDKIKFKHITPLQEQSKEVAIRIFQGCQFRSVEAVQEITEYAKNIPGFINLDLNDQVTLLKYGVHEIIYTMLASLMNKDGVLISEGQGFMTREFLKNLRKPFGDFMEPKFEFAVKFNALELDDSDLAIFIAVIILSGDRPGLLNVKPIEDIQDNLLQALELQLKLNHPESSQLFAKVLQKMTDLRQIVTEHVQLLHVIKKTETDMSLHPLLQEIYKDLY

[9] = Cytotoxicity against mouse peritoneal macrophages after 24 hrs; type: cell-based; details: Peritoneal macrophage cell
[10] = biological target: T1, Peroxisome proliferator-activated receptor gamma (Mus musculus); test: Activation of PPARgamma in mouse peritoneal macrophages assessed as increase in CD36 mRNA expression treated for 5 hrs by qRT-PCR analysis
[11] = tested on: Peritoneal macrophage cell; test: Induction of Dectin-1 mRNA expression in mouse peritoneal macrophages isolated from PPARgamma -/- mouse treated at 5 uM for 5 hrs by qRT-PCR analysis; type: functional, cell-based

Sequence of Nuclear factor erythroid 2-related factor 2 (Mus musculus) (Q60795 whole entry, looked up): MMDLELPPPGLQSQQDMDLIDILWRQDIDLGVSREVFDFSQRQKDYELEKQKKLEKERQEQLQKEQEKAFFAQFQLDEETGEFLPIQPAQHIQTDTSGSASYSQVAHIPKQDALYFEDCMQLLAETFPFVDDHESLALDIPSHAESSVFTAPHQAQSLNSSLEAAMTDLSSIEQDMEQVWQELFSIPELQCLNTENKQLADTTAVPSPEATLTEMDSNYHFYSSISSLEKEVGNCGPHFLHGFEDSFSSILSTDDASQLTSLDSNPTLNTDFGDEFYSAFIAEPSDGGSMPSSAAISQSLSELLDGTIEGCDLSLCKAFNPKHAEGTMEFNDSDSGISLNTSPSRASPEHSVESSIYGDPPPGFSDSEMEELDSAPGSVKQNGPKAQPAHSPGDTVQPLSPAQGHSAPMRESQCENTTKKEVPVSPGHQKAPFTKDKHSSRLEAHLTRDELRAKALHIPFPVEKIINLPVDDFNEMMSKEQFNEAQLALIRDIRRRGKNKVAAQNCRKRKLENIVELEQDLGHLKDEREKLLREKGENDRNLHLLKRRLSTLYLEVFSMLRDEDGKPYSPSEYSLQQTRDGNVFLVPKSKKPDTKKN

Activity [8] | Compound | IC50 [1] | Activity [7] | Activity [11] | other results
 | C=C1CC(CCCCCCCCCCCCC)OC1=O (stereo unspecified) | 3.9 µM |  |  | 
 | C=C1C(=O)OC(c2ccccc2)C1c1ccccc1 (mixture of isomers) | 6.3 µM |  |  | 
Active | C=C1C(=O)OC(c2ccccc2)C1CCCC (mixture of isomers) | 7.8 µM | inactive | inactive | Activity [2]: Active; Activity [3]: inactive; Activity [4]: inactive; Activity [5]: inactive; Activity [6]: Active; IC50 [9]: 12.7 µM; Activity [10]: Active
 | C=C1CC(CCc2ccccc2)OC1=O (stereo unspecified) | 8.7 µM |  |  | 
 | C=C1C(=O)O[C@@H](CCCCCCCCCCCCC)[C@@H]1C(=O)O [PROTOLICHESTERINIC ACID] | 8.6 µM |  |  | 
 | C=C1C(=O)OC(c2ccccc2)C1CCc1ccccc1 (mixture of isomers) | 2.8 µM |  |  | 
Active | CCCCCCCCCCCCCC1C=C(C)C(=O)O1 (racemic) | > 100 µM | inactive | inactive | IC50 [9]: > 100 µM
Active | CN(CCOc1ccc(CC2SC(=O)NC2=O)cc1)c1ccccn1 (stereo unspecified) |  | inactive | inactive | 
 | C=C1C(=O)OC(CCCCCCCCCCCCC)C1CC (mixture of isomers) | 4.1 µM |  |  | 
 | C=C1CC(c2ccccc2)OC1=O (stereo unspecified) | 6.7 µM |  |  | 
 | C=C1C(=O)OC(CCCCCCCCCCCCC)C1CCc1ccccc1 (mixture of isomers) | 3.3 µM |  |  | 
 | C=C1C(=O)OC(CCc2ccccc2)C1CCc1ccccc1 (stereo unspecified) | 2.7 µM |  |  | 
Active | CCCCCCCCCCCCC[C@H]1OC(=O)C(C)=C1C(=O)O | 72 µM | inactive | inactive | IC50 [9]: > 100 µM
 | C=C1C(=O)OC(CCCC)C1CCc1ccccc1 (stereo unspecified) | 5.5 µM |  |  | 
Active | C=C1CC(CCCC)OC1=O (stereo unspecified) | 17.3 µM | inactive | inactive | Activity [2]: Active; Activity [3]: inactive; Activity [4]: inactive; Activity [5]: inactive; Activity [6]: Active; IC50 [9]: 31.2 µM; Activity [10]: Active
 | C=C1C(=O)OC(CCc2ccccc2)C1CCCC (mixture of isomers) | 5 µM |  |  | 
